Assay results published in publication PMC10296720, “A Truncated 14-Amino-Acid Myelin Protein-Zero-Targeting Peptide for Fluorescence-Guided Nerve-Preserving Surgery” (Biomolecules, 2023).
In brackets after ≈: the same amount, converted by molar mass. Where a SMILES comes first, the peptide text is derived from it. The star is where a group is joined. X2 = CC1(C)C(=CC=CC=CC2=[N+](CCCCS(=O)(=O)[O-])c3ccc(S(=O)(=O)O)cc3C2(C)C)N(CCCCCC(=O)NCCN2C(=O)CC(*)C2=O)c2ccc(S(=O)(=O)O)cc21

Experiments:
Brightness (in HSA) = type: physicochemical, human; conditions: in human serum albumin
Description: (§1) Determination of the chemical and photophysical properties (LogP, solubility, serum binding, net charge, and brightness) was performed as previously described.

Solubility = type: physicochemical; conditions: as previously described (refs 27, 31, 36)
Description: as §1

Serum binding = type: in vitro ADME; conditions: as previously described (refs 27, 31, 36)
Description: as §1

LogP = type: physicochemical; conditions: as previously described (refs 27, 31, 36)
Description: as §1

[1] = tested on: P0-expressing RT4 D6P2T myelinating Schwannoma cells; assay: P0 staining and co-localization via fluorescence confocal microscopy; type: cell-based; conditions: 1 μM tracer, 1 h at 4 °C
Description: All chemicals were received from Actu-All Chemical (Oss, The Netherlands), Sigma Aldrich (St. Louis, MO, USA), Tokyo Chemical Industry (Tokyo, Japan), Biosolve BV (Valkenswaard, The Netherlands), and VWR Chemicals (Solon, OH, USA) and used without further purification. DMF and DMSO were dried over 4 Å molecular sieves for at least 24 h prior to use. Preparative high-pressure liquid chromatography (prep-HPLC) was performed on a Waters HPLC system (Waters Chromatography B.V., Etten-Leur, The Netherlands) using a 2545 quaternary gradient module pump and a 2489 UV detector. […] Absorption spectrometry was performed using a UV1280 UV–vis spectrometer (Shimadzu, Kyoto, Japan), and fluorescence spectrometry was performed using an LS55 (Perkin Elmer, Waltham, MA, USA). Fluorescence confocal imaging was performed using an SP8 WLL confocal microscope (Leica Microsystems, Wetzlar, Germany). The obtained images were analyzed using Leica Confocal Software (Leica Microsystems). The mean fluorescence intensity values per sample were measured using an LSRII flow cytometer (BD Biosciences, Franklin Lakes, NJ, USA) with APC-A settings (635 nm laser and 750 nm long-pass filter) for a Cy5 dye. […]
Semi-quenatitative assessment of the level of co-staining within the fluorescence […]

[2] = biological target: myelin protein zero (Homo sapiens) (UniProt P25189); conditions: cited from earlier work
myelin protein zero (Homo sapiens), sequence (P25189 30-153): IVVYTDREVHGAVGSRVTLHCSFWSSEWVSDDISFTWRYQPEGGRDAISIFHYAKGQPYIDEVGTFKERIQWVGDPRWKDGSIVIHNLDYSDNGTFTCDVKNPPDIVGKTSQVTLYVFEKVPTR

Compound: CC[C@H](C)[C@H](NC(=O)[C@H](CC(=O)O)NC(C)=O)C(=O)N[C@H](C(=O)NCC(=O)N[C@@H](CCCCN)C(=O)N[C@H](C(=O)N[C@@H](CO)C(=O)N[C@@H](CCC(N)=O)C(=O)N[C@H](C(=O)N[C@H](C(=O)N[C@@H](CC(C)C)C(=O)N[C@@H](Cc1ccc(O)cc1)C(=O)N[C@H](C(=O)N[C@@H](Cc1ccccc1)C(=O)N[C@@H](CCC(=O)O)C(=O)N[C@@H](CCCCN)C(=O)N[C@H](C(=O)N1CCC[C@H]1C(=O)N[C@H](C(=O)N[C@@H](CCCNC(=N)N)C(=O)N[C@@H](Cc1ccc(O)cc1)C(=O)N[C@@H](CSC1CC(=O)N(CCNC(=O)CCCCCN2C(=CC=CC=CC3=[N+](CCCCS(=O)(=O)[O-])c4ccc(S(=O)(=O)O)cc4C3(C)C)C(C)(C)c3cc(S(=O)(=O)O)ccc32)C1=O)C(N)=O)[C@@H](C)O)C(C)C)C(C)C)[C@@H](C)O)C(C)C)[C@@H](C)O)C(C)C (stereo partly drawn) [Cy5-P0_105–125] (Ac-DIVGKTSQVTLYVFEKVPTRYC(X2)-NH2; N-terminus and C-terminus assumed)
- Brightness (in HSA) (Brightness (in HSA)): 157,300
- Solubility (Solubility): 9 µM (≈ 31.3 µg/mL)
- fraction unbound (Serum binding): 0.44
- LogP (LogP): −0.60 ± 0.04
- Co-localization factor (scale: 0-1), Cy5 vs Lysosomes ([1]; N = 3 per tracer, semi-quantitative, Image J): low

Compound: Cy5-P0101-125 101-125 (from UniProt P25189)
- Kd [2]: 104 nM

Compound: KNPPDIVGKTSQVTLYVFEKVPTRY [Cy5-P0_101–125]
- Brightness (in HSA) (Brightness (in HSA)): 67,760
- Solubility (Solubility): 172 µM
- P0-related staining (pattern and intensity) ([1]; confocal microscopy, in words): in agreement with the location of P0 on the membrane
